Laboratory results reported in ChEMBL document CHEMBL3608229, “Saccharothrixones A-D, Tetracenomycin-Type Polyketides from the Marine-Derived Actinomycete Saccharothrix sp. 10-10” (J Nat Prod, 2015).

Key:
Enterococcus faecalis [1] = experiment: Antibacterial activity against vancomycin-resistant Enterococcus faecalis 12-5 after 18 hrs by agar dilution method; assay type: functional; settings: 12-5, 18 h
Staphylococcus aureus [2] = experiment: Antibacterial activity against methicillin-susceptible Staphylococcus aureus 15 after 18 hrs by agar dilution method; assay type: functional; settings: Staphylococcus aureus, 15, 18 h
[3] = test system: Staphylococcus epidermidis; experiment: Antibacterial activity against methicillin-resistant Staphylococcus epidermidis 12-8 after 18 hrs by agar dilution method; assay type: functional; settings: 12-8, 18 h
MCF7 = experiment: Cytotoxicity against human MCF7 cells assessed as growth inhibition after 48 hrs by sulforhodamine B assay; assay type: functional, cell-based; settings: MCF7, 48 h
Enterococcus faecium [4] = experiment: Antibacterial activity against vancomycin-resistant Enterococcus faecium 12-3 after 18 hrs by agar dilution method; assay type: functional; settings: 12-3, 18 h
[5] = test system: Staphylococcus epidermidis; experiment: Antibacterial activity against methicillin-susceptible Staphylococcus epidermidis ATCC 12228 after 18 hrs by agar dilution method; assay type: functional; settings: ATCC 12228, 18 h
K562 = experiment: Cytotoxicity against human K562 cells assessed as growth inhibition after 48 hrs by sulforhodamine B assay; assay type: functional, cell-based; settings: K562, 48 h
Enterococcus faecalis [6] = experiment: Antibacterial activity against vancomycin-resistant Enterococcus faecalis 09-9 after 18 hrs by agar dilution method; assay type: functional; settings: 09-9, 18 h
Staphylococcus aureus [7] = experiment: Antibacterial activity against methicillin-resistant Staphylococcus aureus ATCC 33591 after 18 hrs by agar dilution method; assay type: functional; settings: ATCC 33591, 18 h
Staphylococcus aureus [8] = experiment: Antibacterial activity against methicillin-resistant Staphylococcus aureus 12-28 after 18 hrs by agar dilution method; assay type: functional; settings: 12-28, 18 h
Klebsiella pneumoniae [9] = experiment: Antibacterial activity against NDM-1 producing Klebsiella pneumoniae ATCC BAA-2146 after 18 hrs by agar dilution method; assay type: functional; settings: ATCC BAA-2146, 18 h
Morganella morganii = experiment: Antibacterial activity against beta-lactamase producing Morganella morganii ATCC 25830 after 18 hrs by agar dilution method; assay type: functional; settings: ATCC 25830, 18 h
Enterococcus faecium [10] = experiment: Antibacterial activity against vancomycin-resistant Enterococcus faecium ATCC 700221 after 18 hrs by agar dilution method; assay type: functional; settings: ATCC 700221, 18 h
Pseudomonas aeruginosa = experiment: Antibacterial activity against beta-lactamase producing Pseudomonas aeruginosa ATCC 27853 after 18 hrs by agar dilution method; assay type: functional; settings: ATCC 27853, 18 h
Proteus vulgaris = experiment: Antibacterial activity against beta-lactamase producing Proteus vulgaris ATCC 29905 after 18 hrs by agar dilution method; assay type: functional; settings: ATCC 29905, 18 h
Staphylococcus aureus [11] = experiment: Antibacterial activity against methicillin-susceptible Staphylococcus aureus ATCC 29213 after 18 hrs by agar dilution method; assay type: functional; settings: ATCC 29213, 18 h
Enterococcus faecium [12] = experiment: Antibacterial activity against vancomycin-resistant Enterococcus faecium 12-1 after 18 hrs by agar dilution method; assay type: functional; settings: 12-1, 18 h
Enterococcus faecalis [13] = experiment: Antibacterial activity against vancomycin-susceptible Enterococcus faecalis ATCC 29212 after 18 hrs by agar dilution method; assay type: functional; settings: ATCC 29212, 18 h
[14] = test system: Staphylococcus epidermidis; experiment: Antibacterial activity against methicillin-resistant Staphylococcus epidermidis 12-6 after 18 hrs by agar dilution method; assay type: functional; settings: 12-6, 18 h
[15] = test system: Acinetobacter calcoaceticus; experiment: Antibacterial activity against beta-lactamase producing Acinetobacter calcoaceticus ATCC 19606 after 18 hrs by agar dilution method; assay type: functional; settings: ATCC 19606, 18 h
Escherichia coli = experiment: Antibacterial activity against beta-lactamase producing Escherichia coli ATCC 25922 after 18 hrs by agar dilution method; assay type: functional; settings: ATCC 25922, 18 h
Klebsiella pneumoniae [16] = experiment: Antibacterial activity against extended spectrum beta-lactamase producing Klebsiella pneumoniae ATCC 700603 after 18 hrs by agar dilution method; assay type: functional; settings: ATCC 700603, 18 h
Enterococcus faecalis [17] = experiment: Antibacterial activity against vancomycin-resistant Enterococcus faecalis ATCC 51299 after 18 hrs by agar dilution method; assay type: functional; settings: ATCC 51299, 18 h
HepG2 = experiment: Cytotoxicity against human HepG2 cells assessed as growth inhibition after 48 hrs by sulforhodamine B assay; assay type: functional, cell-based; settings: HepG2, 48 h
Staphylococcus aureus [18] = experiment: Antibacterial activity against methicillin-resistant Staphylococcus aureus 12-33 after 18 hrs by agar dilution method; assay type: functional; settings: 12-33, 18 h

| Compound | MIC (Enterococcus faecalis [1]) | MIC (Staphylococcus aureus [2]) | MIC [3] | IC50 (MCF7) | MIC (Enterococcus faecium [4]) | MIC [5] | IC50 (K562) | MIC (Enterococcus faecalis [6]) | MIC (Staphylococcus aureus [7]) | MIC (Staphylococcus aureus [8]) | MIC (Klebsiella pneumoniae [9]) | MIC (Morganella morganii) | MIC (Enterococcus faecium [10]) | MIC (Pseudomonas aeruginosa) | MIC (Proteus vulgaris) | MIC (Staphylococcus aureus [11]) | MIC (Enterococcus faecium [12]) | MIC (Enterococcus faecalis [13]) | MIC [14] | IC50 (HepG2) | other results |
| --- | --- | --- | --- | --- | --- | --- | --- | --- | --- | --- | --- | --- | --- | --- | --- | --- | --- | --- | --- | --- | --- |
| COC(=O)c1c(OC)cc2cc3c(c(O)c2c1C)C(=O)O[C@@H]3[C@@]1(O)[C@H](O)C(OC)=CC(=O)[C@@H]1O | > 64 µg/mL | > 64 µg/mL | > 64 µg/mL | > 100 µM | > 64 µg/mL | > 64 µg/mL | > 100 µM | > 64 µg/mL | > 64 µg/mL | > 64 µg/mL | > 64 µg/mL | > 64 µg/mL | > 64 µg/mL | > 64 µg/mL | > 64 µg/mL | > 64 µg/mL | > 64 µg/mL | > 64 µg/mL | > 64 µg/mL | > 100 µM | MIC [15]: > 64 µg/mL; MIC (Escherichia coli): > 64 µg/mL; MIC (Klebsiella pneumoniae [16]): > 64 µg/mL; MIC (Enterococcus faecalis [17]): > 64 µg/mL; MIC (Staphylococcus aureus [18]): > 64 µg/mL |
| COC(=O)c1c(OC)cc2cc3c(c(O)c2c1C)C(=O)O[C@H]3[C@@]1(O)[C@H](O)C(OC)=CC(=O)[C@H]1OC | > 64 µg/mL | > 64 µg/mL | > 64 µg/mL | > 100 µM | > 64 µg/mL | > 64 µg/mL | > 100 µM | > 64 µg/mL | > 64 µg/mL | > 64 µg/mL | > 64 µg/mL | > 64 µg/mL | > 64 µg/mL | > 64 µg/mL | > 64 µg/mL | > 64 µg/mL | > 64 µg/mL | > 64 µg/mL | > 64 µg/mL | > 100 µM | MIC [15]: > 64 µg/mL; MIC (Escherichia coli): > 64 µg/mL; MIC (Klebsiella pneumoniae [16]): > 64 µg/mL; MIC (Enterococcus faecalis [17]): > 64 µg/mL; MIC (Staphylococcus aureus [18]): > 64 µg/mL |
| COC(=O)c1c(OC)cc2cc3c(c(O)c2c1C)C(=O)O[C@@H]3[C@@]1(O)[C@H](O)C(OC)=CC(=O)[C@@H]1OC | > 64 µg/mL | > 64 µg/mL | > 64 µg/mL | > 100 µM | > 64 µg/mL | > 64 µg/mL | > 100 µM | > 64 µg/mL | > 64 µg/mL | > 64 µg/mL | > 64 µg/mL | > 64 µg/mL | > 64 µg/mL | > 64 µg/mL | > 64 µg/mL | > 64 µg/mL | > 64 µg/mL | > 64 µg/mL | > 64 µg/mL | > 100 µM | MIC [15]: > 64 µg/mL; MIC (Escherichia coli): > 64 µg/mL; MIC (Klebsiella pneumoniae [16]): > 64 µg/mL; MIC (Enterococcus faecalis [17]): > 64 µg/mL; MIC (Staphylococcus aureus [18]): > 64 µg/mL |
| COC(=O)c1c(OC)cc2cc3c(c(O)c2c1C)C(=O)[C@@]1(O)C(OC)=CC(=O)[C@H](OC)[C@@]1(O)C3=O | > 64 µg/mL | > 64 µg/mL | > 64 µg/mL | 16.2 µM | > 64 µg/mL | > 64 µg/mL | 20.8 µM | > 64 µg/mL | > 64 µg/mL | > 64 µg/mL | > 64 µg/mL | > 64 µg/mL | > 64 µg/mL | > 64 µg/mL | > 64 µg/mL | > 64 µg/mL | > 64 µg/mL | > 64 µg/mL | > 64 µg/mL | 7.5 µM | MIC [15]: > 64 µg/mL; MIC (Escherichia coli): > 64 µg/mL; MIC (Klebsiella pneumoniae [16]): > 64 µg/mL; MIC (Enterococcus faecalis [17]): > 64 µg/mL; MIC (Staphylococcus aureus [18]): > 64 µg/mL |
| C[C@H]1COc2c(N3CCN(C)CC3)c(F)cc3c(=O)c(C(=O)O)cn1c23.C[C@H]1COc2c(N3CCN(C)CC3)c(F)cc3c(=O)c(C(=O)O)cn1c23.O [LEVOFLOXACIN] | 0.5 µg/mL | 0.25 µg/mL | 8 µg/mL | – | 64 µg/mL | 0.25 µg/mL | – | > 128 µg/mL | 0.25 µg/mL | 0.25 µg/mL | > 128 µg/mL | 0.06 µg/mL | 128 µg/mL | 0.5 µg/mL | ≤ 0.03 µg/mL | 0.25 µg/mL | 32 µg/mL | 0.5 µg/mL | 0.5 µg/mL | – | MIC [15]: 0.5 µg/mL; MIC (Escherichia coli): ≤ 0.03 µg/mL; MIC (Enterococcus faecalis [17]): 0.5 µg/mL; MIC (Staphylococcus aureus [18]): 128 µg/mL |
| COc1cccc2c1C(=O)c1c(O)c3c(c(O)c1C2=O)C[C@@](O)(C(=O)CO)C[C@@H]3O[C@H]1C[C@H](N)[C@H](O)[C@H](C)O1 [DOXORUBICIN] | – | – | – | – | – | – | 10.9 µM | – | – | – | – | – | – | – | – | – | – | – | – | 5.4 µM | – |
| COC(=O)c1c(OC)cc2cc3c(c(O)c2c1C)C(=O)[C@]1(OC)C(=O)C=C(OC)[C@@H](O)[C@]1(O)C3=O | – | – | – | 1.5 µM | – | – | 5.2 µM | – | – | – | – | – | – | – | – | – | – | – | – | 1.6 µM | – |
